The data set is described as follows: solvent given as SMILES.
[1] abbreviates: in c1cc(-c2cccc(-n3c4ccccc4c4ccccc43)c2)cc(-n2c3ccccc3c3ccccc32)c1.

As for `Cc1ccc(C2CC(c3ccc(O)cc3)=NN2c2ccc(S(N)(=O)=O)cc2)cc1` (stereo unspecified), the fluorescence lifetime (in C1CCOC1) is 2.4 ns; the fluorescence lifetime (in C1COCCO1) stood at 2.41 ns; the fluorescence lifetime (in CC#N) worked out at 2.32 ns; the fluorescence lifetime (in CC(C)O) was found to be 2.11 ns; the fluorescence lifetime (in CCO) is 2.04 ns; the fluorescence lifetime (in CCOC(C)=O) came out at 2.41 ns. The fluorescence lifetime is 2.59 ns (in CN(C)C=O), 1.66 ns (in CO), 2.56 ns (in CS(C)=O) and 3.35 ns (in O).
Compound `CC(C)c1cc(C(C)C)c(B2c3cc(-n4c5ccc(C(C)(C)C)cc5c5cc(C(C)(C)C)ccc54)ccc3N(c3ccccc3)c3ccc(-n4c5ccc(C(C)(C)C)cc5c5cc(C(C)(C)C)ccc54)cc32)c(C(C)C)c1` gave a fluorescence lifetime under setting [1] of 15 ns.
On to `Cc1ccc(C2=Cc3c4ccccc4c4ccccc4[n+]3[B-](F)(F)O2)cc1`, for which the fluorescence lifetime (in ClC(Cl)Cl) was found to be 0.706 ns.
On to `CCCCC(CC)CN1C(=O)c2cc(Oc3ccc(C(C)(C)C)cc3)c3c4c(Oc5ccc(OC)cc5)cc5c6c(cc(Oc7ccc(OC)cc7)c(c7c(Oc8ccc(C(C)(C)C)cc8)cc(c2c37)C1=O)c64)C(=O)N(c1c(C(C)C)cccc1C(C)C)C5=O` (stereo unspecified), for which the fluorescence lifetime (in Cc1ccccc1) was 5.25 ns.
As to `Cn1cccc1-c1cc(C#N)ccc1C#N`, the fluorescence lifetime reads like this: (in C1CCOC1) 13.1 ns; (in CC#N) 2.8 ns; (in CCCCCC) 7.5 ns; (in CCCCOCCCC) 11.4 ns; (in CCOCC) 12.6 ns.
Regarding `O=C(c1ccc(N2c3ccccc3Oc3ccccc32)cc1)c1cccc(C(=O)c2ccc(N3c4ccccc4Oc4ccccc43)cc2)c1`, the fluorescence lifetime under setting [1] was 24 ns.
`CCN(CC)c1ccc2cc(-c3ccc(-c4ccc(-c5cc6ccc(N(CC)CC)cc6oc5=O)cc4)cc3)c(=O)oc2c1` gave a fluorescence lifetime (in ClCCl) of 10.1 ns.
As to `CCCCCCC(CCCCCC)N1C(=O)c2cccc3c(-c4ccc(OC)cc4)ccc(c23)C1=O`, the fluorescence lifetime was 2.65 ns (in CCCCCC); 3.12 ns (in CCCCCCCCCCCCCC); 4.78 ns (in CCCCCCCCCCCO); 5.18 ns (in CCCCO); 5.24 ns (in CN(C)C=O); 3.5 ns (in Cc1ccccc1). This compound also returned a fluorescence lifetime (in ClC(Cl)Cl) of 4.11 ns.
`CC(C)(C)c1ccc(C#Cc2cc3ccc4cc(C#Cc5ccc(C(C)(C)C)cc5)cc5ccc(c2)c3c45)cc1`: under “in ClCCl”, the fluorescence lifetime came out at 37.1 ns.
`COc1ccc(-c2c(-c3ccc(OC)cc3)c3c4c(cccc4c2-c2ccccc2)C(=O)c2ccccc2-3)cc1`: the fluorescence lifetime runs as follows: (in CC#N) 2.3 ns; (in CO) 0.8 ns.
For the setting “in ClC(Cl)Cl”, `CCCCCCN1C(=O)c2cccc3c(-c4sc(-c5ccc6c7c(cccc57)C(=O)N(CCCCCC)C6=O)c5c4OCCO5)ccc(c23)C1=O` had a fluorescence lifetime of 0.462 ns.
In the case of `CCN(CC)c1ccc2c(c1)oc(=O)c1cc3c(-c4ccccc4)nn(-c4ccccc4)c3nc12`, the fluorescence lifetime (in ClCCl) amounted to 17.9 ns.
For `C(=C\c1ccc(Nc2ccccc2)cc1)/c1ccccc1`, the fluorescence lifetime was 0.39 ns (in CC#N) and 0.34 ns (in CCCCCC).
In the case of `C[Si](C)(C)C#Cc1cc2ccc3cc(C#C[Si](C)(C)C)cc4ccc(c1)c2c34`, the fluorescence lifetime (in Cc1ccccc1) stood at 99 ns.
In turn, `CC(C)(C)c1ccc2c(c1)c1cc(C(C)(C)C)ccc1n2-c1ccc(C#Cc2ccc3c4ccc(C#Cc5ccc(C=C(C#N)C#N)cc5)cc4n(-c4ccc(C(F)(F)F)cc4)c3c2)cc1` displayed a fluorescence lifetime (in ClCCl) of 0.29 ns.
As for `CCC1=C(C)C2=C(C)c3c(I)c(I)c(I)n3[B-](F)(F)[N+]2=C1C`, the fluorescence lifetime amounted to 0.331 ns (in C1CCCCC1); 0.206 ns (in CC(C)=O); 0.221 ns (in CCO); 0.241 ns (in CCOC(C)=O); 0.214 ns (in CO); 0.21 ns (in OCC(F)(F)F).
On to `CCCCc1cc(-c2cccc(COC)c2)oc1-c1cccc(-c2cc(CCCC)c(-c3cccc(-c4oc(-c5cccc(-c6oc(-c7cccc(COC)c7)cc6CCCC)c5)cc4CCCC)c3)o2)c1`, for which the fluorescence lifetime (in ClC(Cl)Cl) was 1.35 ns.
In turn, `C[Si](C)(C)C#CC(C#C[Si](C)(C)C)=Cc1ccc(C=C(C#C[Si](C)(C)C)C#C[Si](C)(C)C)cc1` displayed a fluorescence lifetime (in ClC(Cl)Cl) of 0.6 ns.
Turning to `C=CC12N=N[C@](C=C)(C3C4CCC(C4)C31)C1[C@@H]3CC[C@@H](C3)[C@H]12` (stereo partly specified), where the note is “in CC#N”, the fluorescence lifetime was determined as 268 ns.
Regarding `F[B-]1(F)OC(c2ccc(N3CCCCC3)cc2)=Cc2cccc[n+]21`, under “in ClC(Cl)Cl”, the fluorescence lifetime is 2.68 ns.
Take `COC(=O)c1noc(-c2ccccc2)c1Br`: the fluorescence lifetime (in C1CCCCC1) came to 0.49 ns.
In the case of `Cc1ccc(N(c2ccc(C)cc2)c2ccc(-c3ccc(C=C(C#N)C#N)cc3)cc2)cc1`, the fluorescence lifetime (in ClC(Cl)Cl) was 1.06 ns.
Regarding `F[B-]1(F)n2c(/C=C/c3ccc(C(=C(c4ccccc4)c4ccccc4)c4ccccc4)cc3)ccc2C(c2ccccc2)=C2C=CC(/C=C/c3ccc(C(=C(c4ccccc4)c4ccccc4)c4ccccc4)cc3)=[N+]21`, the fluorescence lifetime (in C1CCOC1) worked out at 3.98 ns.
As for `CCCCCCCCN1c2ccc(C#Cc3ccc(OC)cc3)cc2Sc2cc(C=O)ccc21`, the fluorescence lifetime was found to be 7.1 ns (in C1CCOC1); 6.03 ns (in CC#N); 6.46 ns (in CCCCCC); 5.08 ns (in CO); 6.6 ns (in CS(C)=O); 7.42 ns (in Cc1ccccc1). Also, the fluorescence lifetime (in ClC(Cl)Cl) is 5.65 ns.
With `COc1ccc2c(c1)c1c(OC)c3ccccc3c(OC)c1n2C`, the fluorescence lifetime worked out at 24.1 ns (in C1CCCCC1), 31 ns (in CC#N), 30.7 ns (in CO) and 27.1 ns (in ClCCl).
Turning to `CCc1c(C)[nH]c(C2=[N+]3C(=Cc4c(C)cc(C)n4[B-]3(F)F)c3ccccc32)c1C`, the fluorescence lifetime reads like this: (in C1CCOC1) 4.41 ns; (in CC#N) 5.55 ns; (in CCCCCC) 7.03 ns; (in CO) 5.6 ns; (in Cc1ccccc1) 5.9 ns; (in ClCCl) 4.93 ns.
For the compound `Cc1ccc(-c2c3ccc([nH]3)c3nc(c(-c4ccc(C#N)cc4)c4ccc([nH]4)c4ccc([nH]4)c(-c4ccc(C)cc4)c4ccc2o4)C=C3)cc1`, the fluorescence lifetime runs as follows: (in C1CCOC1) 5.26 ns; (in Cc1ccccc1) 4.39 ns; (in c1ccccc1) 5.94 ns.
Take `Cc1cc(=O)c2ccc(N)cc2o1`: the fluorescence lifetime reads like this: (in C1CCOC1) 3.22 ns; (in C1COCCO1) 0.48 ns; (in CC#N) 0.59 ns; (in CC(C)O) 4.56 ns; (in CCCCO) 4.01 ns; (in CCCO) 4.68 ns. The fluorescence lifetime runs as follows: (in CCOC(C)=O) 0.94 ns; (in CN(C)C=O) 3.37 ns; (in CO) 4.45 ns; (in CS(C)=O) 0.8 ns; (in ClC(Cl)Cl) 3.67 ns; (in O) 5.52 ns.
With `COc1ccc(C#Cc2ccc(C#Cc3ccc(P(=O)(c4ccccc4)c4ccccc4)cc3)cc2)cc1`, the fluorescence lifetime by setting is: (in C1CCCCC1) 0.63 ns; (in C1COCCO1) 0.73 ns; (in CC#N) 1.13 ns; (in CCO) 1.03 ns; (in CS(C)=O) 1.17 ns; (in ClC(Cl)Cl) 0.78 ns. In addition, the fluorescence lifetime (in ClCCl) amounted to 0.87 ns.
`CCCCc1cc2cccc3cc(CCCC)c4cc(-c5cc6[b-]7c(c5)c(CCCC)cc5cccc(cc6CCCC)[n+]75)cc1[b-]4[n+]23`: the fluorescence lifetime (in C1CCCCC1) amounted to 20.5 ns.
`COc1cc(OC)c2cc(-c3cccc(-c4cc5c(OC)cc(OC)cc5oc4=O)c3)c(=O)oc2c1` gave a fluorescence lifetime (in ClC(Cl)Cl) of 2.6 ns.
The compound `CCCCn1c(-c2ccc(-c3nnc(-c4ccc(-c5nc6c7ccccc7c7ccccc7c6n5CCCC)cc4)o3)cc2)nc2c3ccccc3c3ccccc3c21` registered a fluorescence lifetime (in ClCCl) of 1.64 ns.
`CC1=[N+]2C(=C(c3ccc(C(=O)c4ccccc4)cc3)c3ccc(C)n3[B-]2(F)F)C=C1c1cc2n(c1)[B-](F)(F)[N+]1=CC=CC1=C2c1c(C)cc(C)cc1C`: the fluorescence lifetime runs as follows: (in C1CCCCC1) 2.9 ns; (in CCOC(C)=O) 0.92 ns.
Turning to `Oc1cccc2ccccc12`, where the note is “in C1CCCCC1”, the fluorescence lifetime is 15 ns.
As to `CCN1C(=CC2=C([O-])C(=Cc3[se]c4ccccc4[n+]3CC)C2=O)[Se]c2ccccc21`, the fluorescence lifetime is 1.17 ns (in CO) and 4.15 ns (in ClC(Cl)Cl).
`CN(C)c1ccc2c(c1)C(C)(C)C(=O)C=C2` came in with a fluorescence lifetime (in O) of 3.66 ns.
The compound `c1ccc2c(c1)OP1(=NP3(=NP(Oc4ccc5ccc6cccc7ccc4c5c67)(Oc4ccc5ccc6cccc7ccc4c5c67)=N1)Oc1ccccc1-c1ccccc1O3)Oc1ccccc1-2` showed a fluorescence lifetime (in ClCCl) of 1.23 ns.
`N#Cc1cc2ccc(cc2)c2cccc3cccc(c4ccc(cc4)cc(C#N)c4ccc(cc4)c4cccc5cccc(c6ccc1cc6)c54)c32` came in with a fluorescence lifetime (in Cc1ccccc1) of 20.6 ns.
Take `NS(=O)(=O)c1ccc(N2N=C(c3ccc(O)cc3)CC2c2ccc([N+](=O)[O-])cc2)cc1` (stereo unspecified): the fluorescence lifetime runs as follows: (in C1CCOC1) 2.19 ns; (in C1COCCO1) 2.06 ns; (in CC#N) 2.21 ns; (in CC(C)O) 1.42 ns; (in CCO) 1.31 ns; (in CCOC(C)=O) 2.37 ns. The fluorescence lifetime stood at 2.51 ns (in CN(C)C=O), 1.4 ns (in CO), 2.43 ns (in CS(C)=O) and 2.94 ns (in O).
With `N#Cc1nc2c3ccc(-c4ccc(-n5c6ccccc6c6ccccc65)cc4)cc3c3cc(-c4ccc(-n5c6ccccc6c6ccccc65)cc4)ccc3c2nc1C#N`, the fluorescence lifetime (in O=P(c1ccccc1)(c1ccccc1)c1cccc(-c2cc(-n3c4ccccc4c4ccccc43)cc(-n3c4ccccc4c4ccccc43)c2)n1) amounted to 40.6 ns.
Take `COc1ccc(N(c2ccccc2)c2cc3ccc4cc(N(c5ccccc5)c5ccc(OC)cc5)cc5ccc(c2)c3c45)cc1`: the fluorescence lifetime (in Cc1ccccc1) amounted to 18 ns.
For the setting “in C1CCCCC1”, `Nc1ccccc1` returned a fluorescence lifetime of 3.4 ns.
As to `C(=C\c1ccccc1/C=C/c1c2ccccc2cc2ccccc12)/c1ccncc1`, the fluorescence lifetime (in C1CCOC1) amounted to 3.38 ns.
Where the note is “in C1CCOC1”, `Cc1csc2[n+]1[B-](F)(F)OC(c1ccc(N(C)C)cc1)=N2` had a fluorescence lifetime of 2.24 ns.
As to `N#Cc1cnc(-c2c3ccccc3cc3ccccc23)nc1`, the fluorescence lifetime is, setting by setting: (in CCO) 1.3 ns; (in ClCCl) 1.6 ns.

(Values after the Deep4Chem optical property database.)
